Laboratory results as given in ChEMBL document CHEMBL2046380, “Synthesis and structure-activity relationship of disubstituted benzamides as a novel class of antimalarial agents” (Bioorg Med Chem Lett, 2012).

Experiments:
Plasmodium falciparum [1] = experiment: Antimalarial activity against […] incubated for 72 hrs by DNA staining based MARK1 growth inhibition assay; assay type: functional, organism-based
BJ = experiment: Cytotoxicity against human BJ cells after 72 hrs by […] CellTiterGlo reagent assay; assay type: cell-based
HepG2 = experiment: Cytotoxicity against human HepG2 cells after 72 hrs by […] CellTiterGlo reagent assay; assay type: cell-based; conditions: HepG2, 72 h
HEK293 = experiment: Cytotoxicity against human HEK293 cells after 72 hrs by […] CellTiterGlo reagent assay; assay type: cell-based; conditions: HEK293, 72 h
Plasmodium falciparum [2] = experiment: Antimalarial activity against chloroquine-sensitive Plasmodium falciparum 3D7 incubated for 72 hrs by DNA staining based MAR3D7 growth inhibition assay; assay type: functional, organism-based; conditions: 3D7, 72 h
Raji = experiment: Cytotoxicity against human Raji cells after 72 hrs by […] CellTiterGlo reagent assay; assay type: cell-based

Row | SMILES | EC50 (Plasmodium falciparum [1]) | EC50 (BJ) | EC50 (HepG2) | EC50 (HEK293) | EC50 (Plasmodium falciparum [2]) | EC50 (Raji)
1 | CC(C)N(Cc1cccc(OCCCCCC(=O)O)c1)C(=O)c1ccc(-c2cccc(Br)c2)cc1 | > 15 µM | > 26 µM | > 26 µM | > 26 µM | > 15 µM | > 26 µM
2 | C#CCCC(=O)NCCc1ccc(OC)c(OC)c1 | > 7.51 µM | > 13 µM | > 13 µM | > 13 µM | > 7.51 µM | > 13 µM
3 | C=CCCC1=NCC(O[Si](C)(C)C(C)(C)C)c2cc(OC)c(OC)cc21 (stereo unspecified) | 3.06 µM | > 13 µM | > 13 µM | > 13 µM | 2.95 µM | > 13 µM
4 | COC(=O)CCCC1=NCCc2cc(OC)c(OC)cc21 | > 7.51 µM | > 13 µM | > 13 µM | > 13 µM | > 7.51 µM | > 13 µM
5 | COc1ccc(CCNC(=O)CCCCC(C)=O)cc1OC | > 7.51 µM | > 13 µM | > 13 µM | > 13 µM | > 7.51 µM | > 13 µM
6 | C=CCCC1=NCCc2cc(OC)c(OC)cc21 | > 7.51 µM | > 13 µM | > 13 µM | > 13 µM | > 7.51 µM | > 13 µM
7 | COc1cc2c(cc1OC)C(CC1(C)OCCO1)=NCC2 | > 7.51 µM | > 13 µM | > 13 µM | > 13 µM | > 7.51 µM | > 13 µM
8 | CCOC(=O)/C=C1\NCCc2cc3c(cc21)OCO3 | > 7.51 µM | > 13 µM | > 13 µM | > 13 µM | > 7.51 µM | > 13 µM
9 | C=CCCC1=NCC(OC(C)=O)c2cc(OC)c(OC)cc21 (stereo unspecified) | > 7.51 µM | > 13 µM | > 13 µM | > 13 µM | > 7.51 µM | > 13 µM
10 | COc1cc2c(cc1OC)C1(CC=CCC1)N(C(C)=O)CC2 (stereo unspecified) | > 7.51 µM | > 13 µM | > 13 µM | > 13 µM | > 7.51 µM | > 13 µM
11 | CCOC(OCC)C1=NCCc2cc(OC)c(OC)cc21 | > 7.51 µM | > 13 µM | > 13 µM | > 13 µM | > 7.51 µM | > 13 µM
12 | CC(C)N(Cc1cccc(OCCCCCC(=O)O)c1)C(=O)c1ccccc1 | 0.0074 µM | > 26 µM | > 26 µM | > 26 µM | > 15 µM | > 26 µM
13 | CC(C)N(Cc1cccc(OCCCCCC(=O)O)c1)C(=O)c1ccc(-c2ccc3ccccc3c2)cc1 | > 15 µM | > 26 µM | > 26 µM | > 26 µM | < 0.0004 µM | > 26 µM
14 | CC(C)N(Cc1cccc(OCCCCCC(=O)O)c1)C(=O)c1ccc(-c2cccc(-c3ccccc3)c2)cc1 | > 15 µM | > 26 µM | > 26 µM | > 26 µM | > 15 µM | > 26 µM
15 | CC(=O)c1cccc(-c2ccc(C(=O)N(Cc3cccc(OCCCCCC(=O)O)c3)C(C)C)cc2)c1 | > 15 µM | > 26 µM | > 26 µM | > 26 µM | < 0.0004 µM | > 26 µM
16 | CC(C)COc1cccc(-c2ccc(C(=O)N(Cc3cccc(OCCCCCC(=O)O)c3)C(C)C)cc2)c1 | > 15 µM | > 26 µM | > 26 µM | > 26 µM | > 15 µM | > 26 µM
17 | CC(C)Oc1cccc(-c2ccc(C(=O)N(Cc3cccc(OCCCCCC(=O)O)c3)C(C)C)cc2)c1 | > 15 µM | > 26 µM | > 26 µM | > 26 µM | > 15 µM | > 26 µM
18 | CC(C)N(Cc1cccc(OCCCCCC(=O)O)c1)C(=O)c1ccc(-c2cccc(Oc3ccccc3)c2)cc1 | > 10.4 µM | > 18.8 µM | > 18.8 µM | > 18.8 µM | > 10.4 µM | > 18.8 µM
19 | CC(C)N(Cc1cccc(OCCCCCC(=O)O)c1)C(=O)c1ccc(-c2cccc(OCc3ccccc3)c2)cc1 | > 15 µM | > 26 µM | > 26 µM | > 26 µM | > 15 µM | > 26 µM
20 | COc1cccc(-c2ccc(C(=O)N(Cc3cccc(OCCCCCC(=O)O)c3)C(C)C)cc2)c1 | > 11.6 µM | > 21 µM | > 26 µM | > 21 µM | > 11.6 µM | > 21 µM
21 | CCOc1cccc(-c2ccc(C(=O)N(Cc3cccc(OCCCCCC(=O)O)c3)C(C)C)cc2)c1 | > 11.5 µM | > 20.9 µM | > 20.9 µM | > 20.9 µM | > 11.5 µM | > 20.9 µM
